Source: patent EP0338042B1, “COMPOSITION AND METHOD FOR TREATING HEPATITIS VIRUS INFECTIONS USING 1-(2'-DEOXY-2'-FLUORO-BETA-D-ARABINOFURANOSYL)-5-ETHYLURACIL” (priority 1987, dated 1989)
pEC50: −log10 of the molar value.

Assays:
[1] = tested on: woodchuck hepatitis virus (WHV); experiment: Inhibition of WHV replication in chronically infected woodchucks (DNA polymerase activity); format: in vivo, woodchucks (Marmota monax)
Procedure: All woodchucks bearing chronic active hepatitis virus (Hantz, supra) were administered FMAU twice daily by interperitoneal injections of FMAU in the following dosages:
Studies were then undertaken to evaluate FMAU and FEAU in this animal model using woodchucks naturally chronically-infected with woodchuck hepatitis virus (24). It was assumed that these nucleosides would be anabolized to their nucleoside triphosphates within the animal. WHV replication was measured periodically by the endogenous DNA polymerase activity and by the detection of WHV DNA by the dot-blot hybridization assay. Three different dosages of FMAU and FEAU were investigated. FMAU at 2 mg/kg/day x 5, (given intraperitoneally TABLE VIII
In accordance with the procedures of Example 2, the FEAU inhibition of WHV replication was further studied at different doses administered orally to woodchucks through stomach tubes. Two groups of woodchucks with different initial WHV replication values were examined.
Seven woodchucks with high WHV replication were tested. High replication was defined as over 1000 counts per minute of DNA polymerase activity, and the mean replication was 1600.
Seven woodchucks with low WHV replication were tested. Low replication was defined as lower than 1000 counts per minute of DNA polymerase activity, and the mean replication was 600-800.

[2] = tested on: HSV-1(F); experiment: Plaque reduction assay in Vero cells; format: cell-based; settings: monkey
Excerpt: (§1) With FMAU as a lead compound, the syntheses of other 5-alkyl substituted 2′-fluoro-ara-uracils were undertaken (8, 9), including 1-(2′-deoxy-2′-fluoro-beta-D-arabinofuranosyl)-5-ethyluracil [FEAU].

[3] = tested on: HSV-2(G); experiment: Plaque reduction assay in Vero cells; format: cell-based; settings: monkey
Excerpt: as §1

[4] = tested on: HL-60 CELLS; experiment: Inhibition of cell growth; format: cell-based; settings: Homo sapiens, HL-60; read-out: ED50 FOR INHIBITING CELL GROWTH IN HL-60 CELLS
[5] = tested on: Vero cells; experiment: Inhibition of cell growth; format: cell-based, African green monkey; settings: Chlorocebus sabaeus, read-out: ED50 FOR INHIBITING CELL GROWTH IN VERO CELLS
[6] = tested on: P-815 CELLS; experiment: Inhibition of thymidine incorporation into DNA; format: cell-based, rodent; settings: Mus musculus, P815; read-out: ED50 FOR INHIBITING THYMIDINE INCORPORATION INTO DNA, P-815 CELLS
[7] = tested on: L-1210 CELLS; experiment: Inhibition of thymidine incorporation into DNA; format: cell-based, rodent; settings: Mus musculus, L1210; read-out: ED50 FOR INHIBITING THYMIDINE INCORPORATION INTO DNA, L-1210 CELLS
[8] = tested on: RAT BONE MARROW CELLS; experiment: Inhibition of thymidine incorporation into DNA; format: cell-based; settings: Bone marrow cell, read-out: ED50 FOR INHIBITING THYMIDINE INCORPORATION INTO DNA, RAT BONE MARROW CELLS
[9] = tested on: L-1210; experiment: Incorporation of 2-14C-labeled nucleoside into DNA of cells; format: cell-based, rodent; settings: FEAU also not detectable at 100 μM
Excerpt: (§2) There was no detectable incorporation of FEAU radioactivity into the DNA of either L-1210 or Vero cell lines, but substantial amounts of FMAU radioactivity were incorporated into the DNA of both cell lines. When HSV-1 infected Vero cells were exposed to ¹⁴C-labeled FEAU and FMAU, both nucleosides incorporated into the DNA of these virus-infected cells.

[10] = tested on: HSV-1 INFECTED VERO CELLS; experiment: as above; format: cell-based, African green monkey
Excerpt: as §2

[11] = tested on: VERO; experiment: as above; format: cell-based, African green monkey; settings: FEAU also not detectable at 100 μM
Excerpt: as §2

[12] = tested on: HSV-1(F); settings: plaque reduction in Vero cells, cited from earlier work
[13] = tested on: HSV-2(G); settings: plaque reduction in Vero cells, cited from earlier work
[14] = tested on: HSV-2 (STRAIN G); settings: FMAU 0.5 MG/KG/DAY, cited from earlier work
[15] = in vivo experiments with mice; cited from earlier work
[16] = patients with advanced cancer, x 5; cited from earlier work
[17] = Toxicity in dogs
[18] = tested on: simian varicella virus (SVV); experiment: Simian varicella virus infection in the African green monkey
[19] = 0.2 mg/kg/day, FMAU x 5, FEAU x 10

## Cc1cn([C@@H]2O[C@H](CO)[C@@H](O)[C@@H]2F)c(=O)[nH]c1=O [FMAU, 1-(2'-deoxy-2'-fluoro-beta-D-arabinofuranosyl)-5-methyluracil, reference compound]
[1]; [19]
  suppression of viral replication: equally effective
  toxicity: less severe and delayed toxicity
[1]; 2 mg/kg/day x 5, intraperitoneally
  WHV DNA polymerase activity: complete suppression
[1]; 2 mg/kg/day x 5, intraperitoneally, eventually lethal
  toxicity: severe CNS toxicity
[1]; i.p. 2 mg/kg per day for 7 days or 4 mg/kg per day for 5 days
  persistence of inhibition of WHV replication after cessation of treatment: 20 to 50 days
[1]; i.p. twice daily, 2 mg/kg per day for 7 days or 4 mg/kg per day for 5 days, end of one week following dosage administrations
  woodchuck hepatitis virus DNA polymerase: fallen to background levels
[1]; woodchucks, previous results
  toxicity (previous results): lethal toxicity
[2]
  THER. INDEX ID₅₀/ED₉₀ HSV-1: 67
[3]
  THER. INDEX ID₅₀/ED₉₀ HSV-2: 31
[4]
  pEC50: 4.81
[5]
  pEC50: 5.55
[6]
  pEC50: 4.85
[7]
  pEC50: 4.55
[8]
  pEC50: 5.05
[9]
  INCORPORATION INTO DNA AT 10μM, L-1210: 0.69 p MOLE/10^6 CELLS/HR
[10]
  incorporation into HSV-1-infected Vero cells compared with FEAU: seven-fold greater
[10]; [2-14C] labeled nucleoside
  INCORPORATION INTO DNA AT 10μM, HSV-1 INFECTED VERO CELLS: 3.4 p MOLE/10^6 CELLS/HR
[11]
  INCORPORATION INTO DNA AT 10μM, VERO: 1.3 p MOLE/10^6 CELLS/HR
[12]; read-out: HSV-1(F) ED₅₀
  pEC50: 8.00
[12]; read-out: HSV-1(F) ED₉₀
  EC90: 0.042 µM
[13]; read-out: HSV-2(G) ED₅₀
  pEC50: 7.64
[13]; read-out: HSV-2(G) ED₉₀
  EC90: 0.09 µM
[14]; twice a day for 4 days from 5 hr after inoculation, calculated on day 21
  MDD: 9.4
[14]; twice a day for 4 days
  % SURVIVORS: 67%
[14]; compared to day 1
  %WT GAIN ON DAY 7: 1%
  %WT GAIN ON DAY 14: 4%
  %WT GAIN ON DAY 21: 5%
  %WT GAIN ON DAY 30: 7%
[15]
  toxicity: relatively nontoxic
[16]
  intravenous dose with dose-limiting CNS toxicity: 0.8 mg/kg/day
[17]
  neurotoxicity: very neurotoxic
[17]; FMAU i.v. x 5, FEAU x 10 (preliminary)
  lethal dose: 2.5 mg/kg/day
[18]; Cercopithecine alphaherpesvirus 9, in Primates
  minimal effective dose: ~0.04 mg/kg/day
[18]; monkey, in vivo
  potency against SVV compared with FEAU: about 40 fold
